Target: T1, Polyunsaturated fatty acid lipoxygenase ALOX12/ALOX15 (Homo sapiens, UniProt P16050+P18054)
T1 sequence (P16050 whole entry): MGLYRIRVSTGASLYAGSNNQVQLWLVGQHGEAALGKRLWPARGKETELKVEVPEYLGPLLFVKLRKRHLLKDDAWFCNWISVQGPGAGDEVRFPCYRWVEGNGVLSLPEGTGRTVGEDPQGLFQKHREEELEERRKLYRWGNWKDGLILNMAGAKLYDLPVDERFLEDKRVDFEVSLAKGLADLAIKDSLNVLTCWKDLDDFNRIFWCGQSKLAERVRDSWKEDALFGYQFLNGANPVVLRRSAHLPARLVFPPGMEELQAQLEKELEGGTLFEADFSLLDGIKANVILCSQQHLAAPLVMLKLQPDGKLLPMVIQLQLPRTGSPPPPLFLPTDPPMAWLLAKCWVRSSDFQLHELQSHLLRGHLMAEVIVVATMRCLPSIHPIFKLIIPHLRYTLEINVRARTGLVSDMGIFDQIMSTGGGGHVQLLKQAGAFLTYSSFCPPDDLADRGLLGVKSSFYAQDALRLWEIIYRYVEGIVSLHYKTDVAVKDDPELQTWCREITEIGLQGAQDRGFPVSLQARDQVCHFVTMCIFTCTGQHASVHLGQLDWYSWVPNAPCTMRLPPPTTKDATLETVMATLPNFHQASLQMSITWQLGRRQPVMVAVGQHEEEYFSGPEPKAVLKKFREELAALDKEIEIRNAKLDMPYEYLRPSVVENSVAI
T1 sequence (P18054 whole entry): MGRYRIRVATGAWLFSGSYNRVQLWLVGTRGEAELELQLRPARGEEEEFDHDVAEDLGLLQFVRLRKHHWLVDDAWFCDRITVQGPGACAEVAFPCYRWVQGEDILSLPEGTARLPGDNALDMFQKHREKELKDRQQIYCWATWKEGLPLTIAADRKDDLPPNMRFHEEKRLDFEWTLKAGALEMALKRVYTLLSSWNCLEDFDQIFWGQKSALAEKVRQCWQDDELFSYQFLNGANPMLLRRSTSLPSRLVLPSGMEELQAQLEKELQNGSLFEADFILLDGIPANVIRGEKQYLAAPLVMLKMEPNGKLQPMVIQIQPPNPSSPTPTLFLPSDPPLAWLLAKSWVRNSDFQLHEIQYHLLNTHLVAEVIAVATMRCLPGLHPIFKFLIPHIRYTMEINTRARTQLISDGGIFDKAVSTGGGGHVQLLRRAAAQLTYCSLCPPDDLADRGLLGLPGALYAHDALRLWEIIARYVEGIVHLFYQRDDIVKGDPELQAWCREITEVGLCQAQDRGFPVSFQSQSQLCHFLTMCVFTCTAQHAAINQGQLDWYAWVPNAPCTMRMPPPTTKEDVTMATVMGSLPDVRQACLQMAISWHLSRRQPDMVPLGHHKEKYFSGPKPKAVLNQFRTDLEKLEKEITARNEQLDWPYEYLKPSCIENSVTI
Assay: Biological Activity of Exemplified Compounds as Inhibitors of 12/15-LOX

Row | Compound | IC50 [µM]
1 | CNc1oc(-c2cc(Cl)cc(OC)c2Cl)nc1C#N [US20240336642, Compound 9] | 0.38
2 | N#Cc1nc(-c2cc(Cl)cc(Cl)c2F)oc1NCCCCCO [US20240336642, Compound 25] | > 20
3 | CNc1oc(-c2cc(Cl)cc(Cl)c2OC(F)F)nc1C#N [US20240336642, Compound 4] | 0.097
